Consider one compound from ChEMBL document CHEMBL5143671, “Discovery of (R)-(3-fluoropyrrolidin-1-yl)(6-((5-(trifluoromethyl)pyridin-2-yl)oxy)quinolin-2-yl)methanone (ABBV-318) and analogs as small molecule Nav1.7/ Nav1.8 blockers for the treatment of pain” (Bioorg Med Chem, 2022).

Converted amounts (≈) assume the structure as drawn.

One data set can be described thus: physchem. The following applies: phosphate buffer.
The target of data set [1] is Voltage-gated inwardly rectifying potassium channel KCNH2 (Homo sapiens, UniProt Q12809).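 Further: hERG channel blockade measured by electrophysiology.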
Chain of Voltage-gated inwardly rectifying potassium channel KCNH2 (Q12809 whole entry): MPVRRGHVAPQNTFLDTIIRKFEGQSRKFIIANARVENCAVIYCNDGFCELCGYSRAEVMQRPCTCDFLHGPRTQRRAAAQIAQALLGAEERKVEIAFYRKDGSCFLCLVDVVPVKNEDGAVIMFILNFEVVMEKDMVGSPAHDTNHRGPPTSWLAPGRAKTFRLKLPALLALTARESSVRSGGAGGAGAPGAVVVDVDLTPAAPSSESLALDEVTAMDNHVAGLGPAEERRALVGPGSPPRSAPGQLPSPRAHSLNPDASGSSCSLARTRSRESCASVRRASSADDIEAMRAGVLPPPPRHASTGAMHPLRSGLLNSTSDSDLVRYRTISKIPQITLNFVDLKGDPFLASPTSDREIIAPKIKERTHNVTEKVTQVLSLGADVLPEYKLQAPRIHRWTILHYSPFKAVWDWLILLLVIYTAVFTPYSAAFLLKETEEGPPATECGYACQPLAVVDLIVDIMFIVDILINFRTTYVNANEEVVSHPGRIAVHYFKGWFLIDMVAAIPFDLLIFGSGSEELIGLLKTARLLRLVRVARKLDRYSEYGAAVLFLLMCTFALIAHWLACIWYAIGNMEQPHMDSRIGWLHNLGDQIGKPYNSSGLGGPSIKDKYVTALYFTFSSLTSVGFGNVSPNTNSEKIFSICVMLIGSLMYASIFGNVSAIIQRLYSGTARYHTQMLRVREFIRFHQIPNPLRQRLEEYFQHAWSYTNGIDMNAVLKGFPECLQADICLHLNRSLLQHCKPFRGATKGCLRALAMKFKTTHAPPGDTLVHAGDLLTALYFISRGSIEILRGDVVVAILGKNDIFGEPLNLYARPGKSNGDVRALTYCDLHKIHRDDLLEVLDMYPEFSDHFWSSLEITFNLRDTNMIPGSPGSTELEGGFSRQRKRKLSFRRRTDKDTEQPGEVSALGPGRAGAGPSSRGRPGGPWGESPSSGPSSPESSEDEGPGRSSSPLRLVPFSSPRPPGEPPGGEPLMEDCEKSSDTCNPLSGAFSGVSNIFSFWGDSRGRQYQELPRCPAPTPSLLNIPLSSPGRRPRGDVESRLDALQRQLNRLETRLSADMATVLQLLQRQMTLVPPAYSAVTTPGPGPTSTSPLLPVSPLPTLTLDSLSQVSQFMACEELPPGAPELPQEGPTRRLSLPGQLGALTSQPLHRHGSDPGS
The next data set can be described thus: in vivo. The following applies: Sprague-Dawley, rat, po.
Data set [2] relates to Rattus norvegicus. Nature of the data set: Antinociceptive activity in monoiodoacetate-induced Sprague-Dawley rat model of osteoarthritis at 3 mg/kg, po administered for 5 days and measured after 180 mins by grip force testing relative to control. Type of data set: functional. To be noted: time 5 day.
For data set [3], the system named is Rattus norvegicus. Nature of the data set: Antinociceptive activity in monoiodoacetate-induced Sprague-Dawley rat model of osteoarthritis at 10 mg/kg, po administered for 5 days and measured after 180 mins by grip force testing relative to control. Type of data set: functional. To be noted: time 5 day.
Data set [4] has as its system Rattus norvegicus. As to the kind of experiment: Antinociceptive activity in monoiodoacetate-induced Sprague-Dawley rat model of osteoarthritis at 30 mg/kg, po administered for 5 days and measured after 180 mins by grip force testing relative to control. The following applies: time 5 day. The data set is classed as functional.
A further data set is described as follows: in vitro. To be noted: PAMPA. In general terms: In PAMPA a lipid-coated filter parts donor from acceptor wells.
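Wherever solubility is given: determined using a high-throughput solubility method.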

As usually defined, the solubility is the concentration that dissolves in the medium under given conditions. Higher therefore signals much dissolved substance. By IC50 is commonly meant the concentration needed to halve the response being measured. Low readings indicate greater potency in that assay, high ones weaker potency in that assay. What is called bioavailability is dose-corrected exposure relative to a reference, in per cent. A higher bioavailability goes with much systemic uptake. By Papp is commonly meant the rate of passage across a membrane or cell layer, normalised by area and donor concentration. Regarding `CS(=O)(=O)CCNC(=O)c1ccc2cc(Oc3ccc(C(F)(F)F)cn3)ccc2n1`, the solubility in the data set “physchem” stood at 29 µM (≈ 12.7 µg/mL). In data set [1], this compound gave an IC50 of 30 µM. The same compound showed a bioavailability in “in vivo” of 80.4%. Besides, the Activity was determined as 35% with Rattus norvegicus [2], 68% in the data set on Rattus norvegicus [3] and 63% with Rattus norvegicus [4]. The same compound returned an apparent permeability coefficient (Papp) in “in vitro” of 18 ×10⁻⁶ cm/s.
